Values quoted from earlier work as cited in patent US9119796B2, “Razor comprising a molded shaving aid composition comprising a pyrithione source” (The Gillette Company, priority 2011, dated 2015).

Test system: microbials
Conditions: soap bar composition with platelet ZPT compared with particulate ZPT (median about 0.70 microns, mean about 0.75 microns, thickness less than 0.6 microns); FIG. 1 of U.S. Ser. No. 13/036,889

## [O-]n1ccccc1=S.[O-]n1ccccc1=S.[Zn+2] [platelet ZPT, zinc salt of 1-hydroxy-2-pyridinethione]
  number of colony forming units (CFUs) that form on a substrate: reduces the number of colony forming units (CFUs)
